The target in experiment [1] is constitutive NO synthase (Rattus norvegicus, UniProt P29476). Nature of the experiment: biochemical. Here is the method:
1) In vitro effect of constitutive NO synthase on the rat cerebellum
The test consists in measuring the conversion, by NO synthase, of L-arginine to L-citrulline. Samples of cerebella of Sprague-Dawley rats (300 g--Charles River) are taken rapidly, dissected at 4° C. and homogenised in a volume of extraction buffer (HEPES 50 mM, EDTA 1 mM, pH 7.4, pepstatin A […], leupeptin […]) centrifuged at 21000 g for 15 min at 4° C. The assay is carried out in glass test tubes in which are distributed […] of incubation buffer containing 100 mM of HEPES, pH 7.4, 2 mM of EDTA, 2.5 mM of CaCl2, 2 mM of dithiothreitol,2 mM of reduced NADPH and 10 µg/ml of calmodulin. […] The reaction is initiated by adding 50 μl of homogenised product, the final volume being 200 μl (the 25 μl shortfall being either water or the product being tested). After 15 min, the reaction is stopped with 2 ml of stop buffer (20 mM of HEPES, pH 5.5, 2 mM of EDTA). After passing samples over a column of 1 ml of DOWEX resin, the radioactivity is quantified by a liquid scintillation spectrometer.
The results are expressed in terms of the IC50 value and are summarised in the table of paragraph 2 (first column of results entitled "constitutive NO synthase, formation of citrulline").

Experiment [2] has as its target T1, inducible NO synthase (Mus musculus, UniProt P29477).
T1 construct: The NO synthase is isolated with an extraction buffer; endogenous in cells; sonicated, 100,000 g ultracentrifuged extract
Nature of the experiment: In vitro effect on inducible NO synthase of murine macrophages J774A1 (formation of citrulline). The experiment is classed as biochemical. As to conditions: NO synthase isolated from LPS/IFN-γ activated J774A1 macrophages, pH 7.4.
Description: 2) In vitro effect on inducible NO synthase of murine macrophages J774A1
Murine macrophages J774A1 produce a large quantity of nitrogen monoxide after activation by lipopolysaccharides (LPS) and interferon-γ(IFN-γ). The cells are cultivated in DMEM medium (Dulbecco's Modified Eagle Medium) enriched with 10% foetal calf serum at 37° C. under an atmosphere of 5% CO2 after activation by LPS and IFN-γ. They are seeded in a quantity of 5000 cells/cm^2 in 150 cm^2 bottles. The incubations are carried out in the presence of LPS (1g/ml) and murine IFN-γ (50 U/ml) in DMEM enriched with 10% foetal calf serum. The NO synthase is isolated with an extraction buffer (HEPES 50 mM, pH 7.4, dithiothreitol 0.5 mM, pepstatin A 1 mg/ml, leupeptin 1 mg/ml, soya trypsin inhibitor 1 mg/ml, antipain 1 mg/ml, and PMSF 10 mg/ml). After sonication in the extraction buffer at 4° C., the homogenised products are ultracentrifuged (100,000 g with 3,5-di-tert.butyl-4-hydroxybenzoic acid 4° C. for 1 h). The protocol is then identical to that of cerebellum NO synthase except for the composition of the incubation buffer (100 mM of HEPES, pH 7.4, 1 mM dithiothreitol, 2.5 mM of CaCl2, 10 M of tetrahydrobiopterin, FAD 10 μM, BSA 1 mg/ml, 2 mM of reduced NADPH).

Experiment [3] concerns the target T1, inducible NO synthase. Kind of experiment: In vitro effect on the production of nitrites by murine macrophages J774A1. The class given is cell-based. The settings on record: J774A1 cells, LPS 1 μg/ml + IFN-γ 50 U/ml, 48 hours; read-out: IC50 Inducible NO synthase (formation of nitrites). On the procedure: 3) In vitro effect on the production of nitrites by murine macrophages J774A1
This test is used to measure the inhibitory activity of the products on inducible NO synthase of culture cells. The cells are cultivated in DMEM medium (Dulbecco's Modified Eagle Medium) enriched with 10% foetal calf serum at 37° C. under an atmosphere of 5% CO2. For the experiments, they are distributed in 96-well plates (50,000 cells per well) and incubated in DMEM without phenol red containing 10% foetal calf serum with LPS (1 μg/ml) and murine IFN-γ(50 U/ml) in the presence or absence of the products to be tested. After 48 hours, the concentration of nitrites in the culture media, degradation products of nitrogen monoxide, is measured by a colorimetric method according to Green et al. (Analytical Biochemistry, 126, 131-138 (1982)). The results are expressed in terms of the IC50 value and are summarised in the table of paragraph 2 (third column of results entitled "inducible NO synthase, formation of nitrites").

The test system of experiment [4] is production of superoxide anions by J774A1 cells. Nature of the experiment: In vitro effect on the formation of superoxide anions (PMA-activated J774A1 cells, luminol chemiluminescence). The experiment is classed as cell-based, murine. On the procedure:
4) In vitro effect on the formation of superoxide anions
The activation of the macrophage cells J774A1 by phorbol myristate acetate (PMA) leads to the production of superoxide anions in a few minutes. These superoxide anions are able to oxidise a luminescent substrate, luminol. This reaction generates photons, the production of which is measured by means of a chemiluminometer. The effects of the products on the production of superoxide anions are tested by incubating the J774A1 cells at 37° C. in the presence of PMA, products to be tested, and luminol. The results are expressed in terms of the IC50 value.

For experiment [5], the system named is focal cerebral ischaemia. Kind of experiment: Effect on focal cerebral ischaemia with reperfusion (transient occlusion of the middle cerebral artery). The experiment is classed as in vivo, rat (male Sprague-Dawley). On the procedure: Their activity was evaluated on a model of focal cerebral ischaemia in the rat. […] The effects of the combination were compared with those produced by a treatment with the inhibitor of nitrogen monoxide or the trap of reactive forms of oxygen alone.
5) Effect on focal cerebral ischaemia with reperfusion
The experiments are carried out on male Sprague-Dawley rats (Charles River) weighing between 330 and 360 g. After anaesthesia with isoflurane, the rats undergo transient occlusion of the middle cerebral artery described by Memezawa et al. (Exp. Brain Res. 89, 67-78, 1992). A wire is introduced into the anterior cerebral artery bringing about an occlusion of the middle cerebral artery. Two hours later, the wire is withdrawn so as to permit recirculation of the blood to the Willis polygon. The temperature of the animals is monitored and controlled for 6 hours after occlusion. Forty eight hours after occlusion, the rats are anlesthetised with isoflurane and decapitated. Samples of brain are taken rapidly and immersed for 2 minutes in isopentane at -15° C. Six sections 2 mm thick are obtained and placed in a solution containing 2% 2,3,5-triphenyltetrazolium chloride (TCC) for 20 min and then fixed with formalin. The infarcted zone appears white and the healthy zone red. The infarcted surface area is measured at the site of the (sections by means of an image analyser. The volume of the infarct is calculated by integrating these various surface areas in the knowledge that they are 2 mm apart. The products are administered intraperitoneally. The first treatment is carried out 4 hours after occlusion, that is, 2 hours after the w ire was withdrawn, then 24 hours afterwards.
Compound of example 1: 4 groups of animals are created:
Group 1: treated with physiol ogical serum
Group 2: treated with A (30 mg/kg)
Group 3: treated with B (20 mg/kg)
Group 4: treated with AB (50 mg/kg)
Compound of example 2: 4 groups of animals are created:
Group 1: treated with physiological serum
Group 2: treated with A (10 mg/kg)
Group 4: treated with AB (A: 10 mg/kg and B: 20 mg/kg)
Compound of example 3: 4 groups of animals are created:
Group 2: treated with A (0.03 mg/kg i.v.)
Group 3: treated with B (20 mg/kg i.p.)
Group 4: treated with AB (A: 0.03 mg/kg i.v. and B: 20 mg/kg i.p.)

The mark [6] stands for this setting: 3,5-di-tert-butyl-4-hydroxybenzoic acid 20 mg/kg, aminoguanidine, their combination.
Setting [7] is: Example 1, i.p. 4 h and 24 h after, A 30 mg/kg (NS), B 20 mg/kg (NS), AB 50 mg/kg (** very significant), control 270.4 ± 30.05.
Where [8] appears, read: Example 1, i.p., A 30 mg/kg, B 20 mg/kg, AB 50 mg/kg.
[9] abbreviates: Example 2, i.p., A 10 mg/kg (NS), B 20 mg/kg (NS), AB: A 10 mg/kg and B 20 mg/kg (** very significant), control 270.4 ± 30.05.
[10] abbreviates: Example 2, i.p., A 10 mg/kg, B 20 mg/kg, AB: A 10 mg/kg and B 20 mg/kg.
Where [11] appears, read: Example 3, A 0.03 mg/kg i.v. (NS), B 20 mg/kg i.p. (NS), AB: A 0.03 mg/kg i.v. and B 20 mg/kg i.p. (** very significant), control 237.68 ± 31.51.
[12] abbreviates: Example 3, A 0.03 mg/kg i.v., B 20 mg/kg i.p., AB: A 0.03 mg/kg i.v. and B 20 mg/kg i.p.

The text below walks through data of patent US6297281A, “Association of no syntase inhibitors with trappers of oxygen reactive forms” (priority 1996, dated 2001).

Like-named read-outs stand apart in the source and are kept apart here.

With `N=C(N)NN` [Example 1 A, aminoguanidine], the IC50 in experiment [1] is above 300 µM; in experiment [2], 29 µM; in experiment [3] it was 22 µM. The “IC50 formation of superoxide anions” value in experiment [4] (37° C.) was “inactive”. Also, the “protection of the animals from ischaemia (in words)” value (from here on “protection of the animals”) in experiment [5] (setting [6]) is reported as “low activity”. Also, the Volume of infarct in experiment [5] (setting [7]) is 233 ± 30.15. Besides, the “% Protection” value in experiment [5] (setting [8]) is recorded as 13.8%.

For the molecule `CC(C)(C)c1cc(C(=O)O)cc(C(C)(C)C)c1O.N=C(N)NN` [Example 1 AB], the half-maximal inhibitory concentration (IC50) in experiment [1] (read-out: IC50 Constitutive NO synthase (formation of citrulline), rat cerebellum homogenate, pH 7.4, 15 min) is above 300 µM; in experiment [2] it was 57 µM; in experiment [3], 26 µM; in experiment [4] (37° C.), 30 µM. Besides, in experiment [5] (setting [6]), the “protection of the animals” value is on record as “protects the animals from ischaemia in a highly significant manner”. The Volume of infarct in experiment [5] (setting [7]) stood at 89.6 ± 22.42. The “% Protection” value in experiment [5] (setting [8]) came to 63.2%.

In experiment [4] (Mus musculus, J774.A1, 37° C.), `CC(C)(C)c1cc(C(=O)O)cc(C(C)(C)C)c1O` [Example 1 B, 3,5-di-tert-butyl-4-hydroxybenzoic acid] displayed a half-inhibitory concentration (IC50) of 30 µM. Further, the “protection of the animals” value in experiment [5] (setting [6]) is “inactive”. The Volume of infarct turned out to be 250.9 ± 37.86 in experiment [5] (setting [7]), 250.9 ± 37.86 in experiment [5] (setting [9]) and 222.9 ± 7.34 in experiment [5] (setting [11]). Moreover, the “% Protection” value in experiment [5] (setting [8]) is 7.1%; in experiment [5] (setting [10]), 7.1%; in experiment [5] (setting [12]) it was 6.2%.

Consider `O=[N+]([O-])c1cccc2cn[nH]c12` [Example 2 A, 7-nitroindazole], for which the “protection of the animals” value in experiment [5] (7-nitroindazole 10 mg/kg, combined with 3,5-di-tert-butyl-4-hydroxybenzoic acid) is on record as “not significantly active”. The Volume of infarct in experiment [5] (setting [9]) is 238.9 ± 27.08. Moreover, the “% Protection” value in experiment [5] (setting [10]) is reported as 11.7%.

Take `N=C(NCCC[C@H](N)C(=O)O)N[N+](=O)[O-]` [Example 3 A, NGnitroarginine]: the Volume of infarct in experiment [5] (setting [11]) is on record as 238.14 ± 35.94. Further, the “% Protection” value in experiment [5] (setting [12]) was 0%. Besides, the “protection of the animals” value in experiment [5] (nitroarginine 0.03 mg/kg, combined with i.p. 3,5-di-tert-butyl-4-hydroxybenzoic acid) was “not significantly active”.

Usually IC50 stands for the concentration at which inhibition is half-maximal.
